molecular target: human GPR40 receptor (Homo sapiens, UniProt O14842); experiment: Assay II: IP1 accumulation (IPOne HTRF) in 1321N1 cells stably expressing human GPR40; assay type: cell-based; details: 1321N1 cells expressing human GPR40, stimulation 1 h at 37° C., 5% CO2, LiCl 50 mM
Method: IP1 accumulation measurements using the IPOne assay system—1321N1 cells stably expressing human GPR40 receptor (Euroscreen, Belgium) are seeded 24 h before the assay in white 384-well plates in culture medium containing 10% FCS, 1% Na-Pyruvate and 400 μg/mL G418. IP1 is assayed according to the manufacturers description (Cisbio Bioassays, France). In brief, the assay is started by substitution of the culture medium by stimulation buffer (Hepes 10 mM, CaCl2 1 mM, MgCl2 0.5 mM, KCl 4.2 mM, NaCl 146 mM, glucose 5.5 mM and LiCl 50 mM, pH 7.4). Cells are stimulated for 1 h at 37° C., 5% CO2 by addition of the compounds that are diluted in stimulation buffer containing LiCl. Assays are stopped by adding HTRF-conjugates (IP1-d2 and Anti-IP1 cryptate Tb) and lysis buffer, provided by the manufacturer. After an incubation time of 1 h at room temperature plates are measured using an EnVision™, Perkin Elmer. The obtained fluorescence ratios at 665/615 nM are then used to calculate the pEC50 values using Assay Explorer 3.3 Software (Accelrys, Inc.) by interpolation using an IP1 reference curve and subsequent sigmoidal curve fitting allowing for a variable hill slope.

Chain of human GPR40 receptor (O14842 whole entry): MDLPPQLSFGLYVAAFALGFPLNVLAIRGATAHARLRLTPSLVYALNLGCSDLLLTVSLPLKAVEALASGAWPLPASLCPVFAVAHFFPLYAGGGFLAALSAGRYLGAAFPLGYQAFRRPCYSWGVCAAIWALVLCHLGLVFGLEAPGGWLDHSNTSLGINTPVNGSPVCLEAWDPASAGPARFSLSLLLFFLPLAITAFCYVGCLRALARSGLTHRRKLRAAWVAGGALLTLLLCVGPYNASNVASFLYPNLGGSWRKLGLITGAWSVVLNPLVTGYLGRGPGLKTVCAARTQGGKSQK

In order of falling EC50:
1. Cc1cc(-c2nnn[nH]2)cc(C)c1-c1ccc(F)c2c1CC[C@H]2Oc1ccc2c(c1)OC[C@H]2CC(=O)O [Example 94, 2-((S)-6-((R)-4-(2,6-Dimethyl-4-(1H-tetrazol-5-yl)phenyl)-7-fluoro-2,3-dihydro-1H-inden-1-yloxy)-2,3-dihydrobenzofuran-3-yl)acetic acid]  82 nM
2. Cc1cc(CCNS(C)(=O)=O)cc(C)c1-c1ccc(F)c2c1CC[C@H]2Oc1ccc2c(c1)OC[C@H]2CC(=O)O [Example 74, 2-((S)-6-((R)-4-(2,6-dimethyl-4-(2-(methylsulfonamido)ethyl)phenyl)-7-fluoro-2,3-dihydro-1H-inden-1-yloxy)-2,3-dihydrobenzofuran-3-yl)acetic acid]  40 nM
3. Cc1cc(OC2CCN(C)C2=O)cc(C)c1-c1ccc(F)c2c1CC[C@H]2Oc1ccc2c(c1)OC[C@H]2CC(=O)O (stereo partly drawn) [Example 76, 2-((3S)-6-((1R)-4-(2,6-Dimethyl-4-(1-methyl-2-oxopyrrolidin-3-yloxy)phenyl)-7-fluoro-2,3-dihydro-1H-inden-1-yloxy)-2,3-dihydrobenzofuran-3-yl)acetic acid]  27 nM
4. Cc1cc(C2CCOC2)cc(C)c1-c1ccc(F)c2c1CC[C@H]2Oc1ccc2c(c1)OC[C@H]2CC(=O)O (stereo partly drawn) [Example 87, 2-((3S)-6-((1R)-4-(2,6-Dimethyl-4-(tetrahydrofuran-3-yl)phenyl)-7-fluoro-2,3-dihydro-1H-inden-1-yloxy)-2,3-dihydrobenzofuran-3-yl)acetic acid]  24 nM
5. Cc1cc(-c2nnnn2C)cc(C)c1-c1ccc(F)c2c1CC[C@H]2Oc1ccc2c(c1)OC[C@H]2CC(=O)O [Example 96, 2-((S)-6-((R)-4-(2,6-Dimethyl-4-(1-methyl-1H-tetrazol-5-yl)phenyl)-7-fluoro-2,3-dihydro-1H-inden-1-yloxy)-2,3-dihydrobenzofuran-3-yl)acetic acid]  20 nM
6. Cc1cc(OCC2(O)CC2)cc(C)c1-c1ccc(F)c2c1CC[C@H]2Oc1ccc2c(c1)OC[C@H]2CC(=O)O [Example 75, 2-((S)-6-((R)-7-Fluoro-4-(4-((1-hydroxycyclopropyl)methoxy)-2,6-dimethylphenyl)-2,3-dihydro-1H-inden-1-yloxy)-2,3-dihydrobenzofuran-3-yl)acetic acid]  17 nM
7. COCc1cc(OCC2(C)COC2)cc(COC)c1-c1ccc(F)c2c1CC[C@H]2Oc1ccc2c(c1)OC[C@H]2CC(=O)O [Example 82, 2-((S)-6-((R)-4-(2,6-Bis(methoxymethyl)-4-((3-methyloxetan-3-yl)methoxy)phenyl)-7-fluoro-2,3-dihydro-1H-inden-1-yloxy)-2,3-dihydrobenzofuran-3-yl)acetic acid]  14 nM
8. CC(=O)NCCOc1cc(C)c(-c2ccc(F)c3c2CC[C@H]3Oc2ccc3c(c2)OC[C@H]3CC(=O)O)c(C)c1 [Example 73, 2-((S)-6-((R)-4-(4-(2-Acetamidoethoxy)-2,6-dimethylphenyl)-7-fluoro-2,3-dihydro-1H-inden-1-yloxy)-2,3-dihydrobenzofuran-3-yl)acetic acid]  13 nM
9. Cc1cc(C2CCOCC2)cc(C)c1-c1ccc(F)c2c1CC[C@H]2Oc1ccc2c(c1)OC[C@H]2CC(=O)O [Example 80, 2-((S)-6-((R)-4-(2,6-Dimethyl-4-(tetrahydro-2H-pyran-4-yl)phenyl)-7-fluoro-2,3-dihydro-1H-inden-1-yloxy)-2,3-dihydrobenzofuran-3-yl)acetic acid]  11 nM
10. Cc1cc(OCC(C)(C)CS(C)(=O)=O)cc(C)c1-c1ccc(F)c2c1CC[C@H]2Oc1ccc2c(c1)OC[C@H]2CC(=O)O [Example 77, 2-((S)-6-((R)-4-(4-(2,2-Dimethyl-3-(methylsulfonyl)propoxy)-2,6-dimethylphenyl)-7-fluoro-2,3-dihydro-1H-inden-1-yloxy)-2,3-dihydrobenzofuran-3-yl)acetic acid]  10 nM
11. Cc1cc(-c2ccn(C)c(=O)c2)cc(C)c1-c1ccc(F)c2c1CC[C@H]2Oc1ccc2c(c1)OC[C@H]2CC(=O)O [Example 84, 2-((S)-6-((R)-4-(2,6-Dimethyl-4-(1-methyl-2-oxo-1,2-dihydropyridin-4-yl)phenyl)-7-fluoro-2,3-dihydro-1H-inden-1-yloxy)-2,3-dihydrobenzofuran-3-yl)acetic acid]  9 nM
12. Cc1cc(-c2cnc(=O)n(C)c2)cc(C)c1-c1ccc(F)c2c1CC[C@H]2Oc1ccc2c(c1)OC[C@H]2CC(=O)O [Example 89, 2-((S)-6-((R)-4-(2,6-Dimethyl-4-(1-methyl-2-oxo-1,2-dihydropyrimidin-5-yl)phenyl)-7-fluoro-2,3-dihydro-1H-inden-1-yloxy)-2,3-dihydrobenzofuran-3-yl)acetic acid]  9 nM
13. Cc1cc(C2=CC(=O)OCC2)cc(C)c1-c1ccc(F)c2c1CC[C@H]2Oc1ccc2c(c1)OC[C@H]2CC(=O)O [Example 81, 2-((S)-6-((R)-4-(2,6-Dimethyl-4-(6-oxo-3,6-dihydro-2H-pyran-4-yl)phenyl)-7-fluoro-2,3-dihydro-1H-inden-1-yloxy)-2,3-dihydrobenzofuran-3-yl)acetic acid]  8 nM
14. Cc1cc(-n2cncn2)cc(C)c1-c1ccc(F)c2c1CC[C@H]2Oc1ccc2c(c1)OC[C@H]2CC(=O)O [Example 86, 2-((S)-6-((R)-4-(2,6-Dimethyl-4-(1H-1,2,4-triazol-1-yl)phenyl)-7-fluoro-2,3-dihydro-1H-inden-1-yloxy)-2,3-dihydrobenzofuran-3-yl)acetic acid]  8 nM
15. Cc1cc(-c2ccc(=O)n(C)c2)cc(C)c1-c1ccc(F)c2c1CC[C@H]2Oc1ccc2c(c1)OC[C@H]2CC(=O)O [Example 85, 2-((S)-6-((R)-4-(2,6-Dimethyl-4-(1-methyl-6-oxo-1,6-dihydropyridin-3-yl)phenyl)-7-fluoro-2,3-dihydro-1H-inden-1-yloxy)-2,3-dihydrobenzofuran-3-yl)acetic acid]  7 nM
16. Cc1cc(-c2cnn(CC(C)(C)O)c2)cc(C)c1-c1ccc(F)c2c1CC[C@H]2Oc1ccc2c(c1)OC[C@H]2CC(=O)O [Example 83, 2-((S)-6-((R)-7-Fluoro-4-(4-(1-(2-hydroxy-2-methylpropyl)-1H-pyrazol-4-yl)-2,6-dimethylphenyl)-2,3-dihydro-1H-inden-1-yloxy)-2,3-dihydrobenzofuran-3-yl)acetic acid]  6 nM
17. Cc1cc(-c2ccnnc2)cc(C)c1-c1ccc(F)c2c1CC[C@H]2Oc1ccc2c(c1)OC[C@H]2CC(=O)O [Example 90, 2-((S)-6-((R)-4-(2,6-Dimethyl-4-(pyridazin-4-yl)phenyl)-7-fluoro-2,3-dihydro-1H-inden-1-yloxy)-2,3-dihydrobenzofuran-3-yl)acetic acid]  5 nM
18. Cc1cc(-c2cnn(C)c(=O)c2)cc(C)c1-c1ccc(F)c2c1CC[C@H]2Oc1ccc2c(c1)OC[C@H]2CC(=O)O [Example 92, 2-((S)-6-((R)-4-(2,6-Dimethyl-4-(1-methyl-6-oxo-1,6-dihydropyridazin-4-yl)phenyl)-7-fluoro-2,3-dihydro-1H-inden-1-yloxy)-2,3-dihydrobenzofuran-3-yl)acetic acid]  5 nM
19. Cc1cc(-c2ccn(C)c(=O)n2)cc(C)c1-c1ccc(F)c2c1CC[C@H]2Oc1ccc2c(c1)OC[C@H]2CC(=O)O [Example 97, 2-((S)-6-((R)-4-(2,6-Dimethyl-4-(1-methyl-2-oxo-1,2-dihydropyrimidin-4-yl)phenyl)-7-fluoro-2,3-dihydro-1H-inden-1-yloxy)-2,3-dihydrobenzofuran-3-yl)acetic acid]  5 nM
20. COc1nccc(-c2cc(C)c(-c3ccc(F)c4c3CC[C@H]4Oc3ccc4c(c3)OC[C@H]4CC(=O)O)c(C)c2)n1 [Example 93]  4 nM
21. Cc1cc(-c2cc(=O)n(C)cn2)cc(C)c1-c1ccc(F)c2c1CC[C@H]2Oc1ccc2c(c1)OC[C@H]2CC(=O)O [Example 88, 2-((S)-6-((R)-4-(2,6-Dimethyl-4-(1-methyl-6-oxo-1,6-dihydropyrimidin-4-yl)phenyl)-7-fluoro-2,3-dihydro-1H-inden-1-yloxy)-2,3-dihydrobenzofuran-3-yl)acetic acid]  3 nM
22. Cc1cc(-c2ccncn2)cc(C)c1-c1ccc(F)c2c1CC[C@H]2Oc1ccc2c(c1)OC[C@H]2CC(=O)O [Example 91, 2-((S)-6-((R)-4-(2,6-Dimethyl-4-(pyrimidin-4-yl)phenyl)-7-fluoro-2,3-dihydro-1H-inden-1-yloxy)-2,3-dihydrobenzofuran-3-yl)acetic acid]  3 nM
23. Cc1cc(-c2nnn(C)n2)cc(C)c1-c1ccc(F)c2c1CC[C@H]2Oc1ccc2c(c1)OC[C@H]2CC(=O)O [Example 95, 2-((S)-6-((R)-4-(2,6-Dimethyl-4-(2-methyl-2H-tetrazol-5-yl)phenyl)-7-fluoro-2,3-dihydro-1H-inden-1-yloxy)-2,3-dihydrobenzofuran-3-yl)acetic acid]  3 nM
24. Cc1cc(-c2nnn(CC(C)(C)O)n2)cc(C)c1-c1ccc(F)c2c1CC[C@H]2Oc1ccc2c(c1)OC[C@H]2CC(=O)O [Example 98, 2-((S)-6-((R)-7-Fluoro-4-(4-(2-(2-hydroxy-2-methylpropyl)-2H-tetrazol-5-yl)-2,6-dimethylphenyl)-2,3-dihydro-1H-inden-1-yloxy)-2,3-dihydrobenzofuran-3-yl)acetic acid]  3 nM

From patent publication US8642585B2, “Indanyloxydihydrobenzofuranylacetic acids” (Boehringer Ingelheim International GmbH, priority 2012, dated 2014)
